Assay results reported in PubChem BioAssay AID248 (DTP/NCI, 2004).
Values joined by “and” are separate entries in the source; they are usually repeats but may differ in a detail not shown here. Equal values may be shown once. Toxic doses and inconclusive results are not listed. No stated cut-off is given here; in the data, active means T/C of 150% or more; inactive means T/C below 125%.

Test system: L1210 leukemia ip in BDF1 mice, survival T/C
Assay: NCI In Vivo Anticancer Drug Screen. Data for tumor model L1210 Leukemia (intraperitoneal) in B6D2F1 (BDF1) mice
Conditions: endpoint: mean survival time, higher = longer survival
In short: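 Read-out is survival time, reported as the treated-group measurement over the vehicle-control measurement.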

[1] = dose: 100.0 mg/kg/injection, schedule: Q01DX009 (ip), vehicle: saline with Tween-80
[2] = dose: 100.0 mg/kg/injection, schedule: Q04DX003 (ip), vehicle: saline with Tween-80
[3] = dose: 200.0 mg/kg/injection, schedule: Q04DX003 (ip), vehicle: saline with Tween-80
[4] = dose: 400.0 mg/kg/injection, schedule: Q04DX003 (ip), vehicle: saline with Tween-80
[5] = dose: 50.0 mg/kg/injection, schedule: Q01DX009 (ip), vehicle: saline with Tween-80
[6] = dose: 200.0 mg/kg/injection, schedule: Q01DX009 (ip), vehicle: saline with Tween-80
[7] = dose: 100.0 mg/kg/injection, schedule: Q04DX003 (ip), vehicle: saline sonified
[8] = dose: 200.0 mg/kg/injection, schedule: Q04DX003 (ip), vehicle: saline sonified
[9] = dose: 100.0 mg/kg/injection, schedule: Q01DX001 (ip), vehicle: Klucel (hydroxypropylcellulose) (HPC)
[10] = dose: 100.0 mg/kg/injection, schedule: Q01DX009 (ip), vehicle: Klucel (hydroxypropylcellulose) (HPC)
[11] = dose: 100.0 mg/kg/injection, schedule: Q04DX003 (ip), vehicle: Klucel (hydroxypropylcellulose) (HPC)
[12] = dose: 200.0 mg/kg/injection, schedule: Q01DX001 (ip), vehicle: Klucel (hydroxypropylcellulose) (HPC)
[13] = dose: 200.0 mg/kg/injection, schedule: Q01DX009 (ip), vehicle: Klucel (hydroxypropylcellulose) (HPC)
[14] = dose: 200.0 mg/kg/injection, schedule: Q04DX003 (ip), vehicle: Klucel (hydroxypropylcellulose) (HPC)
[15] = dose: 400.0 mg/kg/injection, schedule: Q01DX001 (ip), vehicle: Klucel (hydroxypropylcellulose) (HPC)
[16] = dose: 400.0 mg/kg/injection, schedule: Q01DX009 (ip), vehicle: Klucel (hydroxypropylcellulose) (HPC)
[17] = dose: 400.0 mg/kg/injection, schedule: Q04DX003 (ip), vehicle: Klucel (hydroxypropylcellulose) (HPC)
[18] = dose: 400.0 mg/kg/injection, schedule: Q01DX009 (ip), vehicle: saline with Tween-80
[19] = dose: 100.0 mg/kg/injection, schedule: Q04DX003 (ip), vehicle: saline
[20] = dose: 200.0 mg/kg/injection, schedule: Q04DX003 (ip), vehicle: saline
[21] = dose: 100.0 mg/kg/injection, schedule: Q01DX001 (ip), vehicle: carboxymethylcellulose (CMC)
[22] = dose: 200.0 mg/kg/injection, schedule: Q01DX001 (ip), vehicle: carboxymethylcellulose (CMC)
[23] = dose: 400.0 mg/kg/injection, schedule: Q01DX001 (ip), vehicle: carboxymethylcellulose (CMC)

Measured: T/C

O=[N+]([O-])c1cccc(SNc2cccc(Cl)c2)c1
inactive: [1] 98 % of control | [2] 93 % of control | [3] 95 % of control | [4] 90 % of control

CC1CCC(C(C)C)C(NCCO)C1 (configuration not stated)
inactive: dose: 18.8 mg/kg/injection, schedule: Q04DX003 (ip), vehicle: saline 102 % of control | dose: 37.5 mg/kg/injection, schedule: Q04DX003 (ip), vehicle: saline 100 % of control | dose: 75.0 mg/kg/injection, schedule: Q01DX001 (ip), vehicle: saline 103 % of control | dose: 75.0 mg/kg/injection, schedule: Q04DX003 (ip), vehicle: saline 100 % of control

CCCCCCCCCCCCCCCCCC(=O)OCC(O)COC(C)=O (configuration not stated)
inactive: dose: 12.5 mg/kg/injection, schedule: Q01DX009 (ip), vehicle: saline with Tween-80 98 % of control | dose: 25.0 mg/kg/injection, schedule: Q01DX009 (ip), vehicle: saline with Tween-80 95 % of control | [5] 95 % of control | [1] 91 % of control | [6] 91 % of control

Cc1cnc2nc(N)[nH]c(=O)c2c1
inactive: [7] 98 % of control | [8] 95 % of control | dose: 400.0 mg/kg/injection, schedule: Q04DX003 (ip), vehicle: saline sonified 95 % of control

CC1=COC2CCCCC2O1 (configuration not stated) (tested in a mixture with another compound)
inactive: dose: 50.0 mg/kg/injection, schedule: Q01DX009 (ip), vehicle: acetone 92 % of control | dose: 100.0 mg/kg/injection, schedule: Q01DX009 (ip), vehicle: acetone 95 % of control | dose: 100.0 mg/kg/injection, schedule: Q04DX003 (ip), vehicle: acetone 103 % of control and 94 % of control | dose: 200.0 mg/kg/injection, schedule: Q04DX003 (ip), vehicle: acetone 104 % of control and 96 % of control and 100 % of control | dose: 400.0 mg/kg/injection, schedule: Q04DX003 (ip), vehicle: acetone 96 % of control and 89 % of control

O=S(=O)(Cc1ccccc1)Nc1cccc(S(=O)(=O)OCc2ccccc2)c1
inactive: [9] 102 % of control | [10] 104 % of control | [11] 100 % of control | [12] 98 % of control | [13] 95 % of control | [14] 94 % of control | [15] 106 % of control | [16] 97 % of control | [17] 92 % of control

NC(=S)N/N=C/c1ccc[nH]1
inactive: dose: 100.0 mg/kg/injection, schedule: Q01DX001 (ip), vehicle: saline with Tween-80 93 % of control | dose: 200.0 mg/kg/injection, schedule: Q01DX001 (ip), vehicle: saline with Tween-80 98 % of control

COc1cc(/C=N/NC(=O)c2ccccc2)ccc1O
inactive: [11] 100 % of control | [14] 95 % of control | [17] 94 % of control

CCOC(=O)/C(C#N)=C\C1(C)CCC(C)=CO1 (configuration not stated)
inactive: [1] 96 % of control | dose: 100.0 mg/kg/injection, schedule: Q04DX002 (ip), vehicle: saline with Tween-80 92 % of control | [6] 110 % of control | dose: 200.0 mg/kg/injection, schedule: Q04DX002 (ip), vehicle: saline with Tween-80 115 % of control | [18] 100 % of control | dose: 400.0 mg/kg/injection, schedule: Q04DX002 (ip), vehicle: saline with Tween-80 96 % of control

Cc1cc(C)c([N+](=O)[O-])cc1N
inactive: dose: 50.0 mg/kg/injection, schedule: Q01DX001 (ip), vehicle: Klucel (hydroxypropylcellulose) (HPC) 101 % of control | [9] 98 % of control | [12] 93 % of control

COC(=O)Cc1ccc([N+](=O)[O-])cc1[N+](=O)[O-]
inactive: [19] 101 % of control | [20] 102 % of control | dose: 400.0 mg/kg/injection, schedule: Q04DX003 (ip), vehicle: saline 93 % of control

CSc1ccc(NC(=S)NCCc2ccccc2)cc1
inactive: [10] 114 % of control | [13] 97 % of control | [16] 102 % of control

COc1ccccc1NC(=O)Nc1c(C)cccc1C
inactive: dose: 100.0 mg/kg/injection, schedule: Q01DX009 (ip), vehicle: gum acacia 97 % of control | dose: 100.0 mg/kg/injection, schedule: Q04DX003 (ip), vehicle: gum acacia 98 % of control | dose: 200.0 mg/kg/injection, schedule: Q01DX009 (ip), vehicle: gum acacia 88 % of control | dose: 200.0 mg/kg/injection, schedule: Q04DX003 (ip), vehicle: gum acacia 93 % of control | dose: 400.0 mg/kg/injection, schedule: Q01DX009 (ip), vehicle: gum acacia 90 % of control | dose: 400.0 mg/kg/injection, schedule: Q04DX003 (ip), vehicle: gum acacia 94 % of control

N#CC(O)C1(O)CCCCC1 (configuration not stated)
inactive: dose: 6.25 mg/kg/injection, schedule: Q04DX003 (ip), vehicle: saline sonified 101 % of control | dose: 12.5 mg/kg/injection, schedule: Q04DX003 (ip), vehicle: saline sonified 101 % of control | dose: 25.0 mg/kg/injection, schedule: Q04DX003 (ip), vehicle: saline sonified 94 % of control

Cc1ccc(C)c(-n2nnc3ccccc3c2=O)c1
inactive: [1] 89 % of control | [2] 95 % of control | [6] 92 % of control | [3] 101 % of control | [18] 91 % of control | [4] 96 % of control

O=[N+]([O-])c1cc(S(=O)(=O)O)c(Nc2ccccc2)cc1NCCO
inactive: [11] 91 % of control | [14] 91 % of control | [17] 90 % of control

COc1cc(/C=N/NC(=O)CNC(=O)c2ccc(Cl)cc2Cl)ccc1O
inactive: [5] 91 % of control | [1] 86 % of control | [6] 88 % of control

CC1CC(C)(C)N=C(CC(C)(O)c2ccccn2)O1 (configuration not stated)
inactive: dose: 100.0 mg/kg/injection, schedule: Q01DX001 (ip), vehicle: saline sonified 97 % of control | dose: 200.0 mg/kg/injection, schedule: Q01DX001 (ip), vehicle: saline sonified 103 % of control | dose: 400.0 mg/kg/injection, schedule: Q01DX001 (ip), vehicle: saline sonified 100 % of control

CCCCC(=O)c1ccc(OC)c(C)c1
inactive: [21] 101 % of control | [22] 97 % of control | [23] 103 % of control

CCOC(=O)C(NC(=O)NC)C(=O)OCC
inactive: [10] 98 % of control | [11] 102 % of control | [13] 93 % of control | [14] 98 % of control | [16] 102 % of control | [17] 96 % of control

O=C(OCC1CC=CC1)C1CC=CC1
inactive: [7] 102 % of control | [8] 96 % of control

O=C(O)c1cccc([N+](=O)[O-])c1O
inactive: dose: 12.5 mg/kg/injection, schedule: Q04DX002 (ip), vehicle: saline with Tween-80 95 % of control | dose: 25.0 mg/kg/injection, schedule: Q04DX002 (ip), vehicle: saline with Tween-80 95 % of control | dose: 50.0 mg/kg/injection, schedule: Q01DX001 (ip), vehicle: carboxymethylcellulose (CMC) 97 % of control | dose: 50.0 mg/kg/injection, schedule: Q04DX002 (ip), vehicle: saline with Tween-80 100 % of control | [21] 87 % of control | [10] 103 % of control | [11] 93 % of control | [22] 87 % of control | [13] 95 % of control | [14] 90 % of control | [23] 92 % of control | [16] 93 % of control | [17] 96 % of control

CN1CCC(O)(c2ccccc2)C(/C(=N/O)c2ccccc2)C1 (configuration not stated)
inactive: [19] 97 % of control | [20] 90 % of control

CCc1ccccc1NC(=O)SCc1ccccc1
inactive: [9] 91 % of control | [10] 100 % of control and 90 % of control | dose: 100.0 mg/kg/injection, schedule: Q04DX002 (ip), vehicle: Klucel (hydroxypropylcellulose) (HPC) 95 % of control and 109 % of control | [11] 87 % of control | [12] 94 % of control | [13] 90 % of control | dose: 200.0 mg/kg/injection, schedule: Q04DX002 (ip), vehicle: Klucel (hydroxypropylcellulose) (HPC) 97 % of control and 102 % of control | [14] 102 % of control | [15] 89 % of control | [16] 108 % of control and 90 % of control | dose: 400.0 mg/kg/injection, schedule: Q04DX002 (ip), vehicle: Klucel (hydroxypropylcellulose) (HPC) 92 % of control and 105 % of control | [17] 98 % of control
